Molecules are shown by their SMILES.

The values below come from patent US5773459A, “Urea- and thiourea-type compounds” (Sugen, Inc., priority 1995, dated 1998).

In the experiment the target is T1, FLK-1 receptor (Mus musculus, UniProt P35918).
T1 construct: expressed in transfected cells; host or cells: NIH3T3 C7#3 (FLK-1 infected cells)
As to the kind of experiment: ELISA Assay to Measure Kinase Activity of FLK-1 Receptor in FLK-1/NIH Cells. The format is cell-based, murine. The settings on record: cellular, VEGF stimulated; read-out: ELISA DATA: FLK-1 - (Cell.). An excerpt:
For purposes of this application, although the nomenclature of the human and murine counterparts of the generic "flk-l" receptor differ, they are, in many respects, interchangeable. The murine receptor, FLK1, and its human counterpart, KDR, share a sequence homology of 93.4% within the intracellular domain. Likewise, murine FLK-1 binds human VEGF with the same affinity as mouse VEGF, and accordingly, is activated by the ligand derived from either species. Millauer et al., 1993, Cell 72:835-846; Quinn et al., 1993, Proc. Natl. Acad. Sci. USA 90:7533-7537. FLK-1 also associates with and subsequently tyrosine phosphorylates human RTK substrates (e.g., PLC-γ or p85) when coexpressed in 293 cells (human embryonal kidney fibroblasts).
Models which rely upon the FLK-1 receptor therefore are directly applicable to understanding the KDR receptor. For example, use of the murine FLK-1 receptor in methods to identify compounds which regulate the signal transduction pathway are directly applicable to the identification of compounds which may be used to regulate the human signal transduction pathway, and more specifically, activity related to the KDR receptor. Chemical compounds identified as inhibitors of KDR/FLK-1 in vitro, will be confirmed in suitable in vivo models.
ELISA Assay to Measure Kinase Activity of FLK-1 Receptor in FLK-1/NIH Cells […]
(In general: An ELISA detects its analyte on a solid surface through an enzyme-linked reagent.)

T1 sequence (P35918 20-1345): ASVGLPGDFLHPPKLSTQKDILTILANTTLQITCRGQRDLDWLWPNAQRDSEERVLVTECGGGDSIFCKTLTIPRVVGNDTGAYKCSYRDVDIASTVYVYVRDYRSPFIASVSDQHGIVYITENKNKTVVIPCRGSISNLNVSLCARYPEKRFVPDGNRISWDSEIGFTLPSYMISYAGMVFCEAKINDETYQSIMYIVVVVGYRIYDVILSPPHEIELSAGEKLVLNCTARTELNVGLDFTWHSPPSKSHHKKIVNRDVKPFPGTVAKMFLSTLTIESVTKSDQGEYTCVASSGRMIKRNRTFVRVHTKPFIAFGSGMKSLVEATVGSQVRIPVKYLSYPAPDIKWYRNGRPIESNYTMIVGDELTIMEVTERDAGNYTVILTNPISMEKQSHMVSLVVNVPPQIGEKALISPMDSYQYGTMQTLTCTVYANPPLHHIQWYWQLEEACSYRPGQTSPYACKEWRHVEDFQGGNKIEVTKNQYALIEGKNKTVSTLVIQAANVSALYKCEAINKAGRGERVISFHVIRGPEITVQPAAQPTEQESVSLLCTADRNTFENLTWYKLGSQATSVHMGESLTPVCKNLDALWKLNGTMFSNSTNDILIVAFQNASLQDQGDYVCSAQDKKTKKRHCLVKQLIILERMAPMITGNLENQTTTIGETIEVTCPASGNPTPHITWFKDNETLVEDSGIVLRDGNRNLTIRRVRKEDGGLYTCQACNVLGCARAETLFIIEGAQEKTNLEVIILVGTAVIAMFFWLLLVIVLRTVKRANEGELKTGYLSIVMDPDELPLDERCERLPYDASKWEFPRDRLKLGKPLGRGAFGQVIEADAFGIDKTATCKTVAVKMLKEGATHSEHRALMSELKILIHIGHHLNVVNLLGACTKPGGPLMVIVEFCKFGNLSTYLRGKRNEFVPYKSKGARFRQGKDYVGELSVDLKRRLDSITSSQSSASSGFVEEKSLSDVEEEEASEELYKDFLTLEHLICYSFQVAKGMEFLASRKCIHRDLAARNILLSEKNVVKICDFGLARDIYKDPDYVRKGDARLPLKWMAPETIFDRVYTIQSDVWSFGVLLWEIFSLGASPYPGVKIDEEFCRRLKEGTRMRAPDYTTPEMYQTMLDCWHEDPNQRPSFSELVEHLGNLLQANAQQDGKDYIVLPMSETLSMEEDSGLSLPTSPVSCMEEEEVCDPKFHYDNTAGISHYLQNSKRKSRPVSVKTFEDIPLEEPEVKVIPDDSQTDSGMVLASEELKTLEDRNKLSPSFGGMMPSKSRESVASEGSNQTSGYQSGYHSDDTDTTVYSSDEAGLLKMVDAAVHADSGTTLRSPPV

`CC(C)S(=O)(=O)c1csc(NC(=O)Nc2ccc(C(C)(C)C)cc2)c1Cl` [Example Z1, N-[3-Chloro-4-(isopropylsulfonyl)thien-2-yl]-N'-(4-t-butylphenyl)urea]: the IC50 is 1000 nM.

As to `CC(C)S(=O)(=O)c1csc(NC(=O)Nc2cc(C(F)(F)F)cc(C(F)(F)F)c2)c1Cl` [Example Z2, N-[3-Chloro-4-(isopropylsulfonyl)thien-2-yl]-N'-(3,5-di-trifluoromethylphenyl)urea], the IC50 was more than 100000 nM.
